# Earlier results in patent US20240032557A1, “AN IRON FORTIFIED TEA COMPOSITION” (Ekaterra Tea Manufacturing USA LLC, priority 2020, published 2024).
# Conditions: water at 25° C.
compound,measurement,value
O=C([O-])/C=C/C(=O)[O-].[Fe+2] [ferrous fumarate],solubility,0.14 g/100 g water
